Structures can show the parent of a compound that is named as a salt.
Columns and labels:
Stress Induced Ulcer = experiment: Effect on stress induced ulcer (water-immersion restraint stress, method of Takagi et al.); type: in vivo, Male rats of Sprague Dawley (SD) strain; details: oral, 100 mg/kg in 1% CMC, given 15 min before 18 h water immersion at 24°C; for Ulcer inhibition rate (%): relative to group without test compound; for Ulcer index (mm): total major axis of ulcers per animal, control 94.4 ± 25.1
Procedure: Test Method 1 (Effect on Stress Induced Ulcer) The method of Takagi et al. (Jap. J. Pharmacol., 18, 9 ([…])) was followed. Male rats of Sprague Dawley (SD) strain each weighing from 180 to 200 g (8 weeks old and 6 to 8 rats in one group) were fasted for 24 hours, followed by oral administration of the above test compounds which had been suspended in 1% CMC aqueous solution. Fifteen minutes later, the animals were placed in a stress cage which was then immersed in a water bath at 24°C at the depth of the […] of the animals. After being immersed for 18 hours, the animals were sacrificed under etherization to remove the stomachs. Each of the stomachs was injected with 12 ml of 1% formaldehyde solution and then immersed in a 1% formaldehyde solution for 15 minutes. The stomach was incised along its greater curvature and examined for the gastric lesions under a stereomicroscope for the major axis (mm) of each ulcer that had developed on the gastric mucous membrane. The total major axis (mm) per animal was taken as the ulcer index of the animal. The ulcer inhibition rate was calculated from the following equation. The ED50 value was obtained from the dose-ulcer inhibition rate curve. Ulcer inhibition rate (%) = (1 - ? ) x 100 (wherein l is the ulcer index of a group without the test compounds administered, and m is the ulcer index of a group having such compounds administered).

Male mice of ddY strain = experiment: Acute toxicity - minimum lethal dose (MLD); type: in vivo; details: oral administration in 1% CMC, fasted overnight, observation over 7 days
Excerpt: Test Method 2 (Acute Toxicity - Minimum Lethal Dose (MLD))
Male mice of ddY strain each weighing from 20 to 22 g (4 weeks old and 5 mice in one group) were fasted overnight, followed by oral administration of the test compounds which had been suspended in 1% CMC aqueous solution. Observation was made over 7 days to determine the minimum lethal dose (MLD).

SMILES | Ulcer inhibition rate (%) (Stress Induced Ulcer) | Ulcer index (mm) (Stress Induced Ulcer) | minimum lethal dose (MLD) (Male mice of ddY strain)
N=C(N)NC[C@H]1CC[C@H](C(=O)Nc2ccccc2)CC1 [E, N-(phenyl)-trans-4-guanidinomethyl-cyclohexanecarboximide hydrochloride, reference compound] | 35.0% | 61.4 ± 14.0 mm | ≤ 1,000 mg/kg
Cl.N=C(N)NCc1ccc(C(=O)Nc2ccc(Cl)cc2)cc1 [B, N-(4ʹ-chlorophenyl)-4-guanidinomethylbenzamide hydrochloride] | 80.5% | 18.4 ± 8.8 mm | –
Cc1ccc(NC(=O)c2ccc(CNC(=N)N)cc2)cc1.Cl [A, N-(4ʹ-methylphenyl)-4-guanidinomethylbenzamide hydrochloride] | 90.3% | 9.2 ± 3.4 mm | –
COc1ccccc1NC(=O)c1ccc(CNC(=N)N)cc1.Cl [Compound D, N-(2ʹ-methoxyphenyl)-4-guanidinomethylbenzamide hydrochloride] | 74.8% | 23.8 ± 14.9 mm | –
CCOC(=O)c1ccccc1NC(=O)c1ccc(CNC(=N)N)cc1.Cl [C, N-(2ʹ-ethoxycarbonylphenyl)-4-guanidinomethylbenzamide hydrochloride] | 84.1% | 15.0 ± 14.7 mm | –

From patent EP0268267A2, “Guanidinomethylbenzoic acid derivatives, compositions containing the same, processes for preparing the same, and the use of the same in the manufacture of medicaments of therapeutic value” (NIPPON HYPOX LABORATORIES INCORPORATED, priority 1986, dated 1988)
